Data reported in patent US20090142330A1, “Use of inactive-plasmin to treat chronic inflammatory disease and tumors” (The Government of the United States of America as …, priority 2007, published 2009).

B1: inactive plasmin: plasmin in which the catalytic site had been irreversibly blocked with a peptide inhibitor; from Molecular Innovations, Inc. (protein)
chain: KVYLSECKTGNGKNYRGTMSKTKNGITCQKWSSTSPHRPRFSPATHPSEGLEENYCRNPDNDPQGPWCYTTDPEKRYDYCDILECEEECMHCSGENYDGKISKTMSGLECQAWDSQSPHAHGYIPSKFPNKNLKKNYCRNPDRELRPWCFTTDPNKRWELCDIPRCTTPPPSSGPTYQCLKGTGENYRGNVAVTVSGHTCQHWSAQTPHTHNRTPENFPCKNLDENYCRNPDGKRAPWCHTTNSQVRWEYCKIPSCDSSPVSTEQLAPTAPPELTPVVQDCYHGDGQSYRGTSSTTTTGKKCQSWSSMTPHRHQKTPENYPNAGLTMNYCRNPDADKGPWCFTTDPSVRWEYCNLKKCSGTEASVVAPPPVVLLPDVETPSEEDCMFGNGKGYRGKRATTVTGTPCQDWAAQEPHRHSIFTPETNPRAGLEKNYCRNPDGDVGGPWCYTTNPRKLYDYCDVPQCAAPSFDCGKPQVEPKKCPGRVVGGCVAHPHSWPWQVSLRTRFGMHFCGGTLISPEWVLTAAHCLEKSPRPSSYKVILGAHQEVNLEPHVQEIEVSRLFLEPTRKDIALLKLSSPAVITDKVIPACLPSPNYVVADRTECFITGWGETQGTFGAGLLKEAQLPVIENKVCNRYEFLNGRVQSTELCAGHLAGGTDSCQGDSGGPLVCFEKDKYILQGVTSWGLGCARPNKPGVYVRVSRFVTWIEGVMRNN

What was measured:
[1] = tested on: MMP-1 production by monocytes; assay: MMP-1 protein in monocyte conditioned media, Western blot; type: cell-based, human; settings: for effect on HMW-uPA enhancement of MMP-1 / effect on plasmin enhancement of MMP-1 / effect on LPS-induced MMP-1 production: monocytes preincubated 30 min with agent; for effect on HMW-uPA enhancement of MMP-1: then LPS plus HMW-uPA; for effect on plasmin enhancement of MMP-1: then LPS plus plasmin; for effect on LPS-induced MMP-1 production: then LPS
Excerpt: Reagents. High molecular weight urokinase plasminogen activator (HMW-uPA), low molecular weight uPA (LMW-uPA), amino-terminal fragment-uPA (ATF-uPA) and α2-antiplasmin were obtained from American Diagnostica Inc. (Stamford, Conn.). […] LPS Escherichia coli 05:B55 was purchased from Sigma-Aldrich (St. Louis, Mo.). ERK1/2/phospho-ERK1/2 and p38/phospho-p38 antibodies were from Cell Signaling Technology (Beverly, Mass.). MMP-1 antibodies used were rabbit polyclonal antibodies against MMP-1 (provided by Dr. Henning Birkedal-Hansen, NIDCR/NIH) and a mouse anti-human MMP-1 monoclonal antibody (Chemicon International, Inc., Temecula, Calif.). Rabbit anti-COX-2 antibodies were obtained from Cayman Chemical Company (Ann Arbor, Mich.) and mouse anti-β-actin antibodies were from Chemicon International, Inc., Temecula, Calif.). Purification and culture of human monocytes. Human peripheral blood cells were obtained by leukapheresis of non-disease subjects. The monocyte fraction was purified by counter-flow centrifugal elutriation as previously described (Wahl et al., Cell Immunol. 85: 373-383, 1984; and Wahl et al., “In Current Protocols in Immunology,” eds. John Wiley & Sons, Inc. NY. Vol. 2: 7.6A.1-7.6A.10., 2005) and contained greater than 90% monocytes as determined by morphology and flow cytometry. Monocytes were cultured in serum-free Dulbecco Modified Eagle's Medium (DMEM; Cambrex, Walkersville, Md.) supplemented with 2 mM L-glutamine (Mediatech, Herndon, Va.) and 10 μg/ml gentamycin (Cambrex, Walkersville, Md.). Western blot analysis of MMP-1, MAPKs and COX-2. For MMP-1 determination, purified monocytes were cultured at a density of 5×10^6/ml of DMEM in 12 well polystyrene plates (Corning Incorporated Life Sciences, Lowell, Mass.). After 36 to 48 hours of treatment with reagents, the conditioned media were centrifuged and collected. Bovine serum albumin (BSA; 40 μg/ml) was added to the culture supernatants prior to the precipitation of the proteins with cold ethanol (final concentration, 60%) for at least 15 min at −70° C. The proteins were pelleted by microcentrifuging at 20,800×g for 12 min, washed with ethanol, and lyophilized by rotary evaporation. The lyophilized proteins were resuspended in sodium dodecyl sulfate (SDS)-Laemmli buffer [500 mM Tris-HCl (pH 6.8)/10% SDS/0.01% bromophenol-blue/20% glycerol], reduced with 5% β-mercaptoethanol, heated for 4 min at 100° C., and electrophoresed on a 10 or 12% Tris-glycine gel in SDS running buffer [25 mM Tris-HCl (pH 8.3)/192 mM glycine/[…]]. The proteins were transferred onto 0.45 μm nitrocellulose in a buffer containing 25 mM Tris-HCl (pH 8.3)/192 mM glycine/20% methanol and blocked with 50 mM Tris-HCl (pH 7.5)/150 mM NaCl (TBS) containing 5% nonfat dry milk for at least 1 hour. The blots were then incubated overnight with antibodies against MMP-1.
Western blots for MMP-1, MAPKs and COX-2 were incubated overnight with primary antibodies, washed and analyzed by the addition of Alexa Fluor 680 goat anti-rabbit or Alexa Fluor 750 goat anti-mouse antibodies (Molecular Probes® Inc., Eugene, Oreg.) and the infrared fluorescence detected with the Odyssey infrared imaging system (LI-COR, Lincoln, Nebr.). Densitometry analysis of the bands on the Western blots was determined with the LI-COR software analysis program or the ImageQuant software analysis program (Amersham Biosciences, Piscataway, N.J.).

[2] = biological target: T1, annexin A2 heterotetramer (annexin A2 p36 / S100A10 p11) on monocytes (Homo sapiens, UniProt P07355+P60903); assay: Binding of FITC-labeled plasmin to monocytes, flow cytometry; settings: preincubation of monocytes 30 min with agent before plasmin-FITC
T1 construct: Purified human monocytes were fixed and permeablized; endogenous in cells; host or cells: purified human peripheral blood monocytes, fixed and permeabilized
Method: (§1) Plasmin activity assay. Plasmin activity was determined with the SPECTROZYME PL kit (American Diagnostica Inc., Stamford, Conn.) which utilizes the chromogenic substrate H-D-norleucyl-hexahydrotyrosol-lysine-para-nitroanilide diacetate. For detection of cell-associated plasmin activity, monocytes were cultured at 1×10^6/well in Hanks Balanced Solution containing calcium and magnesium (Hyclone, Logan, Utah) with the plasmin substrate. Kinetic absorbance readings were measured at 405 nm. RT-PCR. Total cellular RNA was extracted with the RNeasy Mini Kit (QIAGEN® Inc., Valencia, Calif.) 8 hours after stimulation of monocytes with LPS. Transcript levels of MMP-1 were determined using semiquantitative reverse transcriptase-polymerase chain reaction (RT-PCR) with GADPH as an internal control. […] The amplified DNA was separated by 1.7% agarose gel electrophoresis, stained with SYTO 60 red fluorescent nucleic acid stain (Molecular Probes®, Eugene, Oreg.), and the intensity of the stained bands was analyzed with an infrared imaging system. […] FITC-conjugated BSA, plasmin (2.5 μg in 10 μl) or anti-human antibodies (1-2.5 μg/10 μl) then were added, respectively, incubated for 30 min and washed and analyzed by the FACSCalibur system (Becton Dickinson Biosciences, Franklin Lakes, N.J.). […] Flow cytometry results were analyzed by CELLQuest software (Becton Dickinson Biosciences, Franklin Lakes, N.J.). […]

plasmin = biological target: T2, plasmin (Homo sapiens, UniProt P00747); assay: Cell free plasmin activity assay (SPECTROZYME PL); type: biochemical; settings: compared with plasmin alone, FIG. 6B
T2 construct: purchased Sigma-Aldrich
Method: as §1

annexin A2 on monocytes = biological target: T3, annexin A2 on monocytes (Homo sapiens, UniProt P07355); assay: Binding of goat anti-human annexin A2 antibodies to monocytes, flow cytometry; settings: pre-treated with agent 30 minutes; FIG. 6D
T3 construct: Purified human monocytes were fixed and permeablized; endogenous in cells; host or cells: purified human peripheral blood monocytes, fixed and permeabilized
Method: as §1

T1 sequence (P07355 2-339 limits assumed): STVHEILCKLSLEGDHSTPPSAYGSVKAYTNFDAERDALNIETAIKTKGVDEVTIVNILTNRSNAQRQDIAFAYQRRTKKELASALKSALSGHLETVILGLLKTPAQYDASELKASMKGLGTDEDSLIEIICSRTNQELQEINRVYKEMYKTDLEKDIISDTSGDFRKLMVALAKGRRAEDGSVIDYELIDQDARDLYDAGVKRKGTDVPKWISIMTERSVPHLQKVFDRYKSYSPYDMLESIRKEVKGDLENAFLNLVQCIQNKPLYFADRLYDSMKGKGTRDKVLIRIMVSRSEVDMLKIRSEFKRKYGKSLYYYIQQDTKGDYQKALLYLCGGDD
T1 sequence (P60903 2-97 limits assumed): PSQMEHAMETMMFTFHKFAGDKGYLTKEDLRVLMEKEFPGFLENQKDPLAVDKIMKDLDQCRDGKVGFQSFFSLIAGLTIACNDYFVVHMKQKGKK
T3 sequence (P07355 whole entry): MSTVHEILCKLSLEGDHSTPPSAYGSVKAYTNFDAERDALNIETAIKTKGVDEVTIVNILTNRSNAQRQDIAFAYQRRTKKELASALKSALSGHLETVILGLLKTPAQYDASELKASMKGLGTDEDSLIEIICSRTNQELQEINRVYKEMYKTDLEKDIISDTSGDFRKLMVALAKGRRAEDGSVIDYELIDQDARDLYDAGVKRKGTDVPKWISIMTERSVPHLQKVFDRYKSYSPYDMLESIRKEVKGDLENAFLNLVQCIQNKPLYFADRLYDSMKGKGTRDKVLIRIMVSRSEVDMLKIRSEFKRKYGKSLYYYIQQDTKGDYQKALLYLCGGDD

Row | Molecule | effect on HMW-uPA enhancement of MMP-1 [1] | effect on plasmin enhancement of MMP-1 [1] | restoration of MMP-1 after indomethacin inhibition ([1]; PGE2 1 μM added to indomethacin-treated monocytes, FIG. 4C) | effect on LPS-induced MMP-1 production [1] | binding of FITC-labeled plasmin to monocytes [2] | plasmin activity of inactive plasmin combined with plasmin (plasmin) | binding of antibodies against annexin A2 to monocytes (annexin A2 on monocytes)
1 | COc1cccc(-c2cc(=O)c3ccccc3o2)c1N [PD98059] | suppressed the enhancement | suppressed the enhancement |  |  |  |  | 
2 | CCCCC[C@H](O)/C=C/[C@H]1[C@H](O)CC(=O)[C@@H]1C/C=C\CCCC(=O)O [PGE2, prostaglandin-E2] |  |  | restored, in part |  |  |  | 
3 | C[S+]([O-])c1ccc(-c2nc(-c3ccncc3)c(-c3ccc(F)cc3)[nH]2)cc1 (stereo not shown) [SB203580] | suppressed the enhancement | suppressed the enhancement |  |  |  |  | 
4 | COc1ccc2c(c1)c(CC(=O)O)c(C)n2C(=O)c1ccc(Cl)cc1 [indomethacin] | inhibited | inhibited |  | inhibited |  |  | 
5 | B1 |  | inhibited the production of MMP-1 |  | inhibited the production of MMP-1 | blocked the binding | same activity as plasmin alone | blocked the binding
